For one test, the target named is Prothrombin (Homo sapiens, UniProt P00734). Nature of the test: Anticoagulant activity when interacted with Coagulation factor II.
The target of a further test is Coagulation factor X (Homo sapiens, UniProt P00742). Nature of the test: Anticoagulant activity when interacted with Coagulation factor X.
A further test is filed under the species Rattus norvegicus. Nature of the test: Relative inhibitory activity (ri) was measured in rat smooth muscle cells (SMC) at 100 ug/mL in comparison to that of Heparin. Type of test: functional.

Coagulation factor X, sequence (P00742 41-179 limits assumed): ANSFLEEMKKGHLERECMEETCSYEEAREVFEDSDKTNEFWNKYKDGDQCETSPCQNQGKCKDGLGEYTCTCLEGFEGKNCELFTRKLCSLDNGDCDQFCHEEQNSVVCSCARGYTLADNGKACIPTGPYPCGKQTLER
Coagulation factor X, sequence (P00742 235-488 limits assumed): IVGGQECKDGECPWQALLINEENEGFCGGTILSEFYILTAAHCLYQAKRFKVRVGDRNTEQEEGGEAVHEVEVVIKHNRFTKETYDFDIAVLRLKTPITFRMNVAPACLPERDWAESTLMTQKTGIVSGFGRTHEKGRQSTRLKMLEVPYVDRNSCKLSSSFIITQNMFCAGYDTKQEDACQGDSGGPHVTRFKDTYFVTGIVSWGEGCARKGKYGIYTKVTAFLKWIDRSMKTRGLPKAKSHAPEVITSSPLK

The term IC50 denotes the point on the concentration scale where inhibition reaches its midpoint. A higher IC50 goes with weaker potency. Regarding `O=S(=O)([O-])OC[C@@H]1O[C@H](O[C@H]2O[C@@H](COS(=O)(=O)[O-])[C@@H](O[C@@H]3O[C@@H](COS(=O)(=O)[O-])[C@@H](OS(=O)(=O)[O-])[C@H](OS(=O)(=O)[O-])[C@@H]3O[C@H]3O[C@@H](COS(=O)(=O)[O-])[C@H](OS(=O)(=O)[O-])[C@H](OS(=O)(=O)[O-])[C@@H]3OS(=O)(=O)[O-])[C@H](OS(=O)(=O)[O-])[C@@H]2OS(=O)(=O)[O-])[C@@H](OS(=O)(=O)[O-])[C@@H](OS(=O)(=O)[O-])[C@H]1OS(=O)(=O)[O-].[Na+].[Na+].[Na+].[Na+].[Na+].[Na+].[Na+].[Na+].[Na+].[Na+].[Na+].[Na+].[Na+].[Na+]` (stereo in doubt; 13), the IC50 against Prothrombin and against Coagulation factor X was more than 477 µM throughout. In addition, in the test filed under Rattus norvegicus, the Relative inhibitory activity was found to be 0.5.
As for `O=S(=O)([O-])OC[C@@H]1O[C@@H](O[C@H]2O[C@@H](COS(=O)(=O)[O-])[C@@H](O[C@@H]3O[C@@H](CO[C@H]4O[C@@H](COS(=O)(=O)[O-])[C@@H](OS(=O)(=O)[O-])[C@H](OS(=O)(=O)[O-])[C@@H]4OS(=O)(=O)[O-])[C@@H](OS(=O)(=O)[O-])[C@H](OS(=O)(=O)[O-])[C@@H]3OS(=O)(=O)[O-])[C@H](OS(=O)(=O)[O-])[C@@H]2OS(=O)(=O)[O-])[C@@H](OS(=O)(=O)[O-])[C@@H](OS(=O)(=O)[O-])[C@H]1OS(=O)(=O)[O-].[Na+].[Na+].[Na+].[Na+].[Na+].[Na+].[Na+].[Na+].[Na+].[Na+].[Na+].[Na+].[Na+].[Na+]`, the IC50 on Prothrombin and on Coagulation factor X was more than 477 µM in each case. The Relative inhibitory activity in the test filed under Rattus norvegicus is on record as 0.9.
Consider `O=S(=O)([O-])OC[C@@H]1O[C@@H](O[C@H]2O[C@@H](COS(=O)(=O)[O-])[C@@H](O[C@@H]3O[C@@H](CO[C@H]4O[C@@H](COS(=O)(=O)[O-])[C@H](OS(=O)(=O)[O-])[C@H](OS(=O)(=O)[O-])[C@@H]4OS(=O)(=O)[O-])[C@@H](OS(=O)(=O)[O-])[C@H](OS(=O)(=O)[O-])[C@@H]3OS(=O)(=O)[O-])[C@H](OS(=O)(=O)[O-])[C@@H]2OS(=O)(=O)[O-])[C@@H](OS(=O)(=O)[O-])[C@@H](OS(=O)(=O)[O-])[C@H]1OS(=O)(=O)[O-].[Na+].[Na+].[Na+].[Na+].[Na+].[Na+].[Na+].[Na+].[Na+].[Na+].[Na+].[Na+].[Na+].[Na+]` (stereo in doubt; 9), for which the IC50 on Prothrombin and on Coagulation factor X was more than 477 µM in each case. Moreover, the Relative inhibitory activity in the test listed under Rattus norvegicus amounted to 0.8.
For `O=S(=O)(O)OC[C@@H]1O[C@H](O[C@H]2O[C@@H](COS(=O)(=O)O)[C@@H](O[C@@H]3O[C@@H](COS(=O)(=O)O)[C@@H](OS(=O)(=O)O)[C@H](OS(=O)(=O)O)[C@@H]3O[C@H]3O[C@@H](COS(=O)(=O)O)[C@H](OS(=O)(=O)O)[C@H](OS(=O)(=O)O)[C@@H]3OS(=O)(=O)O)[C@H](OS(=O)(=O)O)[C@@H]2OS(=O)(=O)O)[C@@H](OS(=O)(=O)O)[C@@H](OS(=O)(=O)O)[C@H]1OS(=O)(=O)O` (stereo in doubt; 14), the IC50 on Prothrombin and on Coagulation factor X was more than 477 µM throughout.
With `O=S(=O)([O-])OC[C@@H]1O[C@H](O[C@H]2O[C@@H](COS(=O)(=O)[O-])[C@@H](O[C@@H]3O[C@@H](COS(=O)(=O)[O-])[C@@H](OS(=O)(=O)[O-])[C@H](OS(=O)(=O)[O-])[C@@H]3O[C@@H]3O[C@@H](COS(=O)(=O)[O-])[C@@H](OS(=O)(=O)[O-])[C@H](OS(=O)(=O)[O-])[C@@H]3OS(=O)(=O)[O-])[C@H](OS(=O)(=O)[O-])[C@@H]2OS(=O)(=O)[O-])[C@@H](OS(=O)(=O)[O-])[C@@H](OS(=O)(=O)[O-])[C@H]1OS(=O)(=O)[O-].[Na+].[Na+].[Na+].[Na+].[Na+].[Na+].[Na+].[Na+].[Na+].[Na+].[Na+].[Na+].[Na+].[Na+]`, the IC50 against Prothrombin and against Coagulation factor X was more than 477 µM each time. In the test filed under Rattus norvegicus, the Relative inhibitory activity is recorded as 0.3.
Regarding `O=S(=O)([O-])OC[C@@H]1O[C@@H](O[C@@H]2[C@H](OS(=O)(=O)[O-])[C@@H](O[C@H]3[C@H](OS(=O)(=O)[O-])[C@H](OS(=O)(=O)[O-])[C@@H](O[C@H]4O[C@@H](COS(=O)(=O)[O-])[C@H](OS(=O)(=O)[O-])[C@H](OS(=O)(=O)[O-])[C@@H]4OS(=O)(=O)[O-])O[C@H]3COS(=O)(=O)[O-])OC[C@H]2OS(=O)(=O)[O-])[C@@H](OS(=O)(=O)[O-])[C@@H](OS(=O)(=O)[O-])[C@H]1OS(=O)(=O)[O-].[Na+].[Na+].[Na+].[Na+].[Na+].[Na+].[Na+].[Na+].[Na+].[Na+].[Na+].[Na+].[Na+]`, the IC50 at Prothrombin and on Coagulation factor X was more than 509 µM throughout. This compound also registered a Relative inhibitory activity in the test listed under Rattus norvegicus of 0.7.
`O=S(=O)([O-])OC[C@@H]1O[C@@H](O[C@H]2O[C@@H](COS(=O)(=O)[O-])[C@@H](O[C@@H]3O[C@@H](CO[C@H]4O[C@@H](COS(=O)(=O)[O-])[C@H](OS(=O)(=O)[O-])[C@H](OS(=O)(=O)[O-])[C@@H]4OS(=O)(=O)[O-])[C@@H](OS(=O)(=O)[O-])[C@H](OS(=O)(=O)[O-])[C@@H]3OS(=O)(=O)[O-])[C@H](OS(=O)(=O)[O-])[C@@H]2OS(=O)(=O)[O-])[C@@H](OS(=O)(=O)[O-])[C@@H](OS(=O)(=O)[O-])[C@H]1OS(=O)(=O)[O-].[Na+].[Na+].[Na+].[Na+].[Na+].[Na+].[Na+].[Na+].[Na+].[Na+].[Na+].[Na+].[Na+].[Na+]` (stereo in doubt; 12): the IC50 at Prothrombin and on Coagulation factor X was more than 477 µM throughout. Moreover, in the test listed under Rattus norvegicus, the Relative inhibitory activity worked out at 0.6.
In the case of `C[C@@H]1O[C@@H](OC[C@@H]2O[C@@H](O[C@H]3[C@H](OS(=O)(=O)[O-])[C@H](OS(=O)(=O)[O-])[C@@H](O[C@H]4O[C@@H](COS(=O)(=O)[O-])[C@H](OS(=O)(=O)[O-])[C@H](OS(=O)(=O)[O-])[C@@H]4OS(=O)(=O)[O-])O[C@H]3COS(=O)(=O)[O-])[C@@H](OS(=O)(=O)[O-])[C@@H](OS(=O)(=O)[O-])[C@@H]2OS(=O)(=O)[O-])[C@H](OS(=O)(=O)[O-])[C@@H](OS(=O)(=O)[O-])[C@H]1OS(=O)(=O)[O-].[Na+].[Na+].[Na+].[Na+].[Na+].[Na+].[Na+].[Na+].[Na+].[Na+].[Na+].[Na+].[Na+]`, the IC50 against Prothrombin and against Coagulation factor X was more than 506 µM each time. In the test listed under Rattus norvegicus, this compound gave a Relative inhibitory activity of 0.7.
`O=S(=O)([O-])OC[C@@H]1O[C@H](O[C@H]2O[C@@H](COS(=O)(=O)[O-])[C@@H](O[C@@H]3O[C@@H](COS(=O)(=O)[O-])[C@@H](OS(=O)(=O)[O-])[C@H](OS(=O)(=O)[O-])[C@@H]3O[C@H]3O[C@@H](COS(=O)(=O)[O-])[C@H](OS(=O)(=O)[O-])[C@H](OS(=O)(=O)[O-])[C@@H]3OS(=O)(=O)[O-])[C@H](OS(=O)(=O)[O-])[C@@H]2OS(=O)(=O)[O-])[C@@H](OS(=O)(=O)[O-])[C@@H](OS(=O)(=O)[O-])[C@H]1OS(=O)(=O)[O-].[Na+].[Na+].[Na+].[Na+].[Na+].[Na+].[Na+].[Na+].[Na+].[Na+].[Na+].[Na+].[Na+].[Na+]` (stereo in doubt; 2): the IC50 at Prothrombin and against Coagulation factor X was more than 477 µM in each case. Further, in the test filed under Rattus norvegicus, the Relative inhibitory activity stood at 0.9.
